# Source: ChEMBL document CHEMBL1201862, “PubChem BioAssay data set” (2004)
# Calls of active or inactive are those of the source.
# Tests used:
# [1] = biological target: T1, DNA repair protein RAD52 homolog (Homo sapiens, UniProt P43351); type: functional, biochemical
# T1 sequence (P43351 whole entry): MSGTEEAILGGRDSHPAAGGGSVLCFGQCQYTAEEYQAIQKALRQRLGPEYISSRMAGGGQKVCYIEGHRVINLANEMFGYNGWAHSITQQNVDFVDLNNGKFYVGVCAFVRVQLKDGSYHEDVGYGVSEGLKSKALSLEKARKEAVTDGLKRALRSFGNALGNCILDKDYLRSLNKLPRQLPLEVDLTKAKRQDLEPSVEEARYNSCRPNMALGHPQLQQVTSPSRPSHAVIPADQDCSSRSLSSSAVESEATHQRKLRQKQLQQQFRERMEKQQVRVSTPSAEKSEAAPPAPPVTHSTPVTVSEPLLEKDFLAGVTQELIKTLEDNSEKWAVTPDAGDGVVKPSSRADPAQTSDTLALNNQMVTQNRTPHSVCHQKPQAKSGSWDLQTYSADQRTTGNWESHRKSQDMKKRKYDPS
# [2] = NIH-3T3 fibroblast cytotoxicity, dose response, cytotoxicity control, cell-based, fluorescence, Alamar Blue, secondary assay (AID 2327); type: functional;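 note: NIH-3T3 mouse fibroblasts cultured with fluconazole at 8 µg/mL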
# [3] = biological target: T2, Ubiquitin-conjugating enzyme E2 N (Homo sapiens, UniProt P61088); type: functional;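 note: Dose-response confirmation in a TR-FRET assay detecting UBC13-driven polyubiquitin chain formation, inhibition measured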
# T2 sequence (P61088 whole entry): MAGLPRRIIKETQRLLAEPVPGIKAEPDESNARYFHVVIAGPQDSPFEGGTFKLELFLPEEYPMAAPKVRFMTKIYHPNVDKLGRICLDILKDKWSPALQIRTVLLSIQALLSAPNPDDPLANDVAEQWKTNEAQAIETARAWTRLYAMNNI
# [4] = biological target: Eukaryotic translation initiation factor 4E (Mus musculus, UniProt P63073); experiment: eIF4E–eIF4G protein interaction inhibitors, dose response, biochemical, TR-FRET (AID 855); type: functional;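 note: potency for disrupting eIF4E binding to eIF4GI seen as loss of FRET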
# Chain of Eukaryotic translation initiation factor 4E (P63073 whole entry): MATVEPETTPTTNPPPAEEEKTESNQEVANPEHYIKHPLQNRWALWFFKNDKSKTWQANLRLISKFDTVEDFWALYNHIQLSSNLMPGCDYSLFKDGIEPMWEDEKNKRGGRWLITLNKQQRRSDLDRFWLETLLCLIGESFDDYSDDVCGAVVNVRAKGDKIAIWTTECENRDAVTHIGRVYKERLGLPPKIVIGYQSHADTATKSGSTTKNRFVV
# [5] = HEp-2 cell cytotoxicity, dose response, cytotoxicity control for RSV inhibitor project, HTS (AID 2410); type: functional; conditions: human respiratory syncytial virus
# [6] = cells
# [7] = A Cell Based Secondary Assay To Explore Cytotoxicity of Compounds that Sensitize Mycobacterium Tuberculosis to Beta-Lactam Antibiotics.; type: functional
# [8] = biological target: T3, Rac GTPase-activating protein 1 (Homo sapiens, UniProt Q9H0H5); experiment: MgcRacGAP GTPase-activating activity inhibitors, confirmation, biochemical, ADP Hunter fluorescence, primary and confirmatory (AID 624330); type: functional
# T3 sequence (Q9H0H5 whole entry): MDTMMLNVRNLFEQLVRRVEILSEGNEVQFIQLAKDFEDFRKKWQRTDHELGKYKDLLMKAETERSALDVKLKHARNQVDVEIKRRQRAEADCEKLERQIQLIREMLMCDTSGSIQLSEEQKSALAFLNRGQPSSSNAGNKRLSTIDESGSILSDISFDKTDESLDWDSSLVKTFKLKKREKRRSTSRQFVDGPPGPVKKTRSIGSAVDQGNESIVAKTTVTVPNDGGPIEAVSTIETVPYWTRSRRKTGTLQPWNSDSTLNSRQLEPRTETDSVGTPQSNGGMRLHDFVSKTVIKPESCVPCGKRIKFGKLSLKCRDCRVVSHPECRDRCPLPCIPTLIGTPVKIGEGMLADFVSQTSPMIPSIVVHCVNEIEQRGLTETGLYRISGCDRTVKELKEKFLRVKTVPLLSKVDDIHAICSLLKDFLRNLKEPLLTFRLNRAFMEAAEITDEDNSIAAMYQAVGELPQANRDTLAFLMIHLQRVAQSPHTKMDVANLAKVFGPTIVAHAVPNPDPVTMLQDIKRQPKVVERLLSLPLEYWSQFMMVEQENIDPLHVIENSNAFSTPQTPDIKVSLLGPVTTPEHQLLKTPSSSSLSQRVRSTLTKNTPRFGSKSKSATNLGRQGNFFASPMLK
# [9] = biological target: T4, Replicative DNA helicase DnaB (Mycobacterium tuberculosis, UniProt P9WMR3); experiment: DnaB intein splicing inhibitors, dose response, biochemical, cell-free fluorescence (AID 449749); type: functional
# T4 sequence (P9WMR3 whole entry): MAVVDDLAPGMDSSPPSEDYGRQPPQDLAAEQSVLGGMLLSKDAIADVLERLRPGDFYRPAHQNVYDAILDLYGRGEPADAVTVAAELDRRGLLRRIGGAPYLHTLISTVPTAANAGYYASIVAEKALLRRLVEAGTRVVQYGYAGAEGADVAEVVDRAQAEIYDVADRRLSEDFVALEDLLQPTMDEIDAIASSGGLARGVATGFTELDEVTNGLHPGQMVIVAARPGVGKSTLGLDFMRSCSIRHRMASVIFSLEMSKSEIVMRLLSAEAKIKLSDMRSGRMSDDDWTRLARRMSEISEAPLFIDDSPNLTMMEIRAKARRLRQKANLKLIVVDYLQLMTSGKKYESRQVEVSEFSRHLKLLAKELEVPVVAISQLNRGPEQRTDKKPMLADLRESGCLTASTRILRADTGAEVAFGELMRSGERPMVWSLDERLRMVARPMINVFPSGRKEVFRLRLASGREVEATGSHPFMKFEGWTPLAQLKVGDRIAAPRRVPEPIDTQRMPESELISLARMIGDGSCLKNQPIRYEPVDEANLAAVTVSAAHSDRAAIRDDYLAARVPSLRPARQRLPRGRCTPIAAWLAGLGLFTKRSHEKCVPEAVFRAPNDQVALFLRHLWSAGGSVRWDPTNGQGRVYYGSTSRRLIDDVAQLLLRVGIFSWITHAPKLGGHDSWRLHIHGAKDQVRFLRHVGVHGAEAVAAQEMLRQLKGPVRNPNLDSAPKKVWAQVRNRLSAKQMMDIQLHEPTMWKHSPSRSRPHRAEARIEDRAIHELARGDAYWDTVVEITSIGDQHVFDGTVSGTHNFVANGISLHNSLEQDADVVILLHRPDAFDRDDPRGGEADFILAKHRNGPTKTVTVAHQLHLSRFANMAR
# [10] = biological target: Nonstructural protein 1 (Influenza A virus, UniProt Q194T2); type: functional, Influenza A virus (A/California/07/2009(H1N1))
# Chain of Nonstructural protein 1 (Q194T2 whole entry): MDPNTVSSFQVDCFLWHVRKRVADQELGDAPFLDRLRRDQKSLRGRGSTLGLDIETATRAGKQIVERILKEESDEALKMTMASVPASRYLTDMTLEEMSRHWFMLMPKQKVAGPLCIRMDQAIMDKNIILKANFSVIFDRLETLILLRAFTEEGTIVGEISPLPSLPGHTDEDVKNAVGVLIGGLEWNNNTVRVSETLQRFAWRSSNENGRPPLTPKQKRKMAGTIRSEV
# [11] = biological target: T5, Microphthalmia-associated transcription factor (Homo sapiens, UniProt O75030); experiment: TRPM1 promoter luciferase signal decrease, dose response, MITF inhibitor project, cell-based, SK-MEL-5, cherry-picked, set 3 (AID 493073); type: functional
# T5 sequence (O75030 whole entry): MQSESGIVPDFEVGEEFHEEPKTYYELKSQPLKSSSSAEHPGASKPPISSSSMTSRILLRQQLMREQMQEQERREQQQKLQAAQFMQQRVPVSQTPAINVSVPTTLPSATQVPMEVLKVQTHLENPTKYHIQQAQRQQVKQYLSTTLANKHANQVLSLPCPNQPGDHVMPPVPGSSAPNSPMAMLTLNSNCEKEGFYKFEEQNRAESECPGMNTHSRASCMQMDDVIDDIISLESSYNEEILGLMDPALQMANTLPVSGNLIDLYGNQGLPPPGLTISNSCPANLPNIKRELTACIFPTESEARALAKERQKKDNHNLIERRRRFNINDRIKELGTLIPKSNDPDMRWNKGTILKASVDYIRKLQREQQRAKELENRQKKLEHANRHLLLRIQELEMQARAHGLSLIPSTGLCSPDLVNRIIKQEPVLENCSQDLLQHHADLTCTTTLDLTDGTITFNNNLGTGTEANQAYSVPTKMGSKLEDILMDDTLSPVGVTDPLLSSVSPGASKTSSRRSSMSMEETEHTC
# [12] = biological target: Large T antigen (Simian virus 40, UniProt P03070); type: functional, Betapolyomavirus macacae;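 note: Confirmatory-stage PubChem screen for compounds that inhibit SV40 T antigen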
# Chain of Large T antigen (P03070 whole entry): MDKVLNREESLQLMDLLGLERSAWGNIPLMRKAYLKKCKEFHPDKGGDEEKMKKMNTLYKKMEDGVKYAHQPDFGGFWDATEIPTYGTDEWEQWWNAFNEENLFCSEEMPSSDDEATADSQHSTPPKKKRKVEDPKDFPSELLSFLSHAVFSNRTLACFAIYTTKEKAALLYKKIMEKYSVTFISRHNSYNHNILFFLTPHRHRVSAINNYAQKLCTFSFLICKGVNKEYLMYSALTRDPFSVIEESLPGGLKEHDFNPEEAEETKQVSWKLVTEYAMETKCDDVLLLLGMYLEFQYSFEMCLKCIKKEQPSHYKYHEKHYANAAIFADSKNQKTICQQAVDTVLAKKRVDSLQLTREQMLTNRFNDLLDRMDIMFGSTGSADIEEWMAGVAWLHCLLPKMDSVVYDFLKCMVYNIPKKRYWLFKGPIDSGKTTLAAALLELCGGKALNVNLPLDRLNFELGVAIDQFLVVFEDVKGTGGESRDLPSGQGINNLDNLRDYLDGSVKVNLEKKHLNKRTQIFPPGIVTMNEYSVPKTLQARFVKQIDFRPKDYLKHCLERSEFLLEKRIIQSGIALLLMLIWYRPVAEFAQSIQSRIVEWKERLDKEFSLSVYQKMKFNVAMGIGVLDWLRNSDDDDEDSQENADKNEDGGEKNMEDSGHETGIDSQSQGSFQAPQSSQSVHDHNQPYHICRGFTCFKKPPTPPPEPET
# [13] = biological target: T6, Protein RecA (Mycobacterium tuberculosis, UniProt P9WHJ3); experiment: Fluorescence Cell-Free Homogeneous Dose Retest to Identify Inhibitors of RecA-Intein Splicing Activity. [Related pubchem assays (depositor defined):AID2097, AID2223, AID489010, AID492950]; type: functional
# T6 sequence (P9WHJ3 whole entry): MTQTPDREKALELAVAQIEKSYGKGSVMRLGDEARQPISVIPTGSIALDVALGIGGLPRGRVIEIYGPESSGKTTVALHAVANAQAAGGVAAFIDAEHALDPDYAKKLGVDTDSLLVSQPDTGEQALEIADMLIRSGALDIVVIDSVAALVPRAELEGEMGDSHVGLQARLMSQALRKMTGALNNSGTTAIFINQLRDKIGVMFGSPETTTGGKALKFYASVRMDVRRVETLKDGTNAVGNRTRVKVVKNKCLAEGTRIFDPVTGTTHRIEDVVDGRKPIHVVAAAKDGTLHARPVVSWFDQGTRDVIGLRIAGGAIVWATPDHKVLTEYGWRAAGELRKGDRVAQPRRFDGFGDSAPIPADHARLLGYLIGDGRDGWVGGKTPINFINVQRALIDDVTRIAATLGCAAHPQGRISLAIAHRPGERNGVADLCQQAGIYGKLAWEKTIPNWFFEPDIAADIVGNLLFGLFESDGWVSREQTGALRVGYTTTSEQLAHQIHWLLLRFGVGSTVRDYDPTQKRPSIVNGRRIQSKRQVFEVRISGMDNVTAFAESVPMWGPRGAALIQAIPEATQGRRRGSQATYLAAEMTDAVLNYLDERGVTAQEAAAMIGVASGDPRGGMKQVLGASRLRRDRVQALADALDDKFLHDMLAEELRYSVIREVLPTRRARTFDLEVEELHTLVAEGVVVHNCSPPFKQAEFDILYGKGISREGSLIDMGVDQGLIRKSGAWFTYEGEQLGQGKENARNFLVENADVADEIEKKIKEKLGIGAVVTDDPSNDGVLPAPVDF
# [14] = HeLa cell cytotoxicity, dose response, cytotoxicity control for MgcRacGAP inhibitor project (AID 624300); type: functional
# [15] = biological target: Heat shock protein HSP 90-alpha (Homo sapiens, UniProt P07900); type: functional, organism-based
# [16] = biological target: DNA dC->dU-editing enzyme APOBEC-3G (Homo sapiens, UniProt Q9HC16); type: functional;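 note: Dose-response counterscreen measuring inhibition of APOBEC3G DNA deaminase activity, run while confirming APOBEC3A inhibitors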
# Chain of DNA dC->dU-editing enzyme APOBEC-3G (Q9HC16 whole entry): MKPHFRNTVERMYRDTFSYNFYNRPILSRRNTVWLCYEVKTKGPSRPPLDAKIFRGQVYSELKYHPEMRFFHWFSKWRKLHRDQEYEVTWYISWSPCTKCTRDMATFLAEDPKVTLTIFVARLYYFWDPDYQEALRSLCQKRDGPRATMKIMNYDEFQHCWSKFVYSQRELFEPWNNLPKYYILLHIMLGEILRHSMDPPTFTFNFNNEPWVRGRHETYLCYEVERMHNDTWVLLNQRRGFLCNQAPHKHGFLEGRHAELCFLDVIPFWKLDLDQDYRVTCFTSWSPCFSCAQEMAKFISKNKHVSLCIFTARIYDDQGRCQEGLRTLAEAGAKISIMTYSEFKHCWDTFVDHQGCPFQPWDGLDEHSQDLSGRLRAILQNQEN
# [17] = biological target: DNA dC->dU-editing enzyme APOBEC-3A (Homo sapiens, UniProt P31941); experiment: Dose Response confirmation of small molecule APOBEC3A DNA Deaminase Inhibitors via a fluorescence-based single-stranded DNA deaminase assay. [Related pubchem assays (depositor defined):AID493011, AID493024]; type: functional
# Chain of DNA dC->dU-editing enzyme APOBEC-3A (P31941 whole entry): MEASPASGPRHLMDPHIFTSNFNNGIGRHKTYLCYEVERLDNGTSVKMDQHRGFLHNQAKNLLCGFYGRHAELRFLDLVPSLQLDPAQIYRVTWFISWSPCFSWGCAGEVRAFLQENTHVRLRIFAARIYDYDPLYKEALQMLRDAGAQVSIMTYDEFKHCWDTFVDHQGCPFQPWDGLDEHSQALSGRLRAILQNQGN
# [18] = biological target: Steroidogenic factor 1 (Homo sapiens, UniProt Q13285); experiment: Counterscreen for inverse agonists of the liver receptor homolog-1 (LRH-1; NR5A2): Luminescence-based cell-based high throughput dose response assay to identify inverse agonists of the Steroidogenic Factor 1 Nuclear Receptor (SF1; NR5A1).; type: functional
# Chain of Steroidogenic factor 1 (Q13285 whole entry): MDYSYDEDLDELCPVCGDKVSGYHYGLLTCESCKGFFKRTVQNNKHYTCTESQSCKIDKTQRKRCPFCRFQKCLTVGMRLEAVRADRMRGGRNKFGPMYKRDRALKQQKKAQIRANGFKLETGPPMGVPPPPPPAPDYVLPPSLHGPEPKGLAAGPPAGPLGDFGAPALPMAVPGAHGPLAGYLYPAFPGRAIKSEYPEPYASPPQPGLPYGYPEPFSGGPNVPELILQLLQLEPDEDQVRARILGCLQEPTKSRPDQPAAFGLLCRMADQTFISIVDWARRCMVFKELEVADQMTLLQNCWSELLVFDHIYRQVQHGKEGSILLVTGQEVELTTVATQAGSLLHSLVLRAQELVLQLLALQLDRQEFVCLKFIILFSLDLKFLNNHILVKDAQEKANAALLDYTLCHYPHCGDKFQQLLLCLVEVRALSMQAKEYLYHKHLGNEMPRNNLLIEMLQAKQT
# [19] = StAR promoter reporter inhibition counter-screen, dose response, counter-screen for LRH-1 inverse agonist project, cell-based, luminescence, luciferase reporter (AID 651969); type: functional
# [20] = biological target: Nuclear receptor subfamily 5 group A member 2 (Homo sapiens, UniProt O00482); type: functional, cell-based;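 note: HEK293T cells transfected with LRH-1 and a StAR promoter luciferase reporter; potency for inhibitors that lower LRH-1 driven reporter light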
# Chain of Nuclear receptor subfamily 5 group A member 2 (O00482 whole entry): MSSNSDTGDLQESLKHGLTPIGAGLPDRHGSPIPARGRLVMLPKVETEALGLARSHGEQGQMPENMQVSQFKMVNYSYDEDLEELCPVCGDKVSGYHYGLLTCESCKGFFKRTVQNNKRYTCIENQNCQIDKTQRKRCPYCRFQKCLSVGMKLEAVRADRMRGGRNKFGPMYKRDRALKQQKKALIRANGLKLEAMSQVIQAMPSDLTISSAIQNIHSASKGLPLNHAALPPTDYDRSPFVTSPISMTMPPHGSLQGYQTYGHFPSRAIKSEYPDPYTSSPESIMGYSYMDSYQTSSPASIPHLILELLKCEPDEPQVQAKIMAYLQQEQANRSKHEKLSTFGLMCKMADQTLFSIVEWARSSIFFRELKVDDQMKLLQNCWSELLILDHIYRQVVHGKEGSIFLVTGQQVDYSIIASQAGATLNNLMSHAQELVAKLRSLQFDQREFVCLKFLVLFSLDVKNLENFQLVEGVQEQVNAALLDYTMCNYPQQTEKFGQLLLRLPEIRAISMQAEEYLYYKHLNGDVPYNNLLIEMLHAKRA
# [21] = biological target: Paired box protein Pax-8 (Homo sapiens, UniProt Q06710); experiment: inhibitors of PAX8-driven TPO luciferase reporter, dose response, RMG-I cells, cherry-pick (AID 687027); type: functional, cell-based;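 note: luciferase reporter driven by Pax8 target thyroperoxidase promoter measured by SteadyGlo luminescence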
# Chain of Paired box protein Pax-8 (Q06710 whole entry): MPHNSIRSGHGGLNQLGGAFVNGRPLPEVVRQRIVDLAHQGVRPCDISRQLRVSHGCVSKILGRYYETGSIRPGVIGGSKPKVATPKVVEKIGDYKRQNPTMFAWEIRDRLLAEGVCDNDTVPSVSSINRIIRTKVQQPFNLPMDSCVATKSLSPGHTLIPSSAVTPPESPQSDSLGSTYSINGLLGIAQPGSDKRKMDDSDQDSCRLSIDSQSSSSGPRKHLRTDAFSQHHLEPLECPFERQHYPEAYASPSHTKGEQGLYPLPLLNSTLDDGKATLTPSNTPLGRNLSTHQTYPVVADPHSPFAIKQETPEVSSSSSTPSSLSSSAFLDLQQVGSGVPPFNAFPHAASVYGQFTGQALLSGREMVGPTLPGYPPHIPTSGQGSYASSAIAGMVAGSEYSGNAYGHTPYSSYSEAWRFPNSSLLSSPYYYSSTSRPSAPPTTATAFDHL
# [22] = cells; type: functional, cell-based
# [23] = C. albicans growth with fluconazole, confirmation, fluorescence, retest (AID 2467); type: functional, cell-based
# [24] = cells; type: functional, cell-based; remark: listed apart in the source
smiles,measurement,setting,value
COc1ccc2c(c1O)-c1cccc3c1[C@@H](C2)N(C)CC3,AC50,[1],10.7 µM (active)
NC1=NC[C@H](Cc2ccc(O)cc2)N1CCC12CC3CC(CC(C3)C1)C2,AC50,[1],18.5 µM (active)
same,EC50,[2],> 160 µM (inactive)
same,IC50,[3],> 20 µM (inactive)
CC(C)c1ccc(CN2CCC(C(=O)NCc3cccnc3)CC2)cc1,IC50,[4],> 64 µM (inactive)
Cc1cccc(C)c1-n1c(C)cc(/C=C2\C(=O)NN(c3ccccc3)C2=O)c1C,CC50,[5],36.6 µM (active)
same,IC50,[6],7.55 µM (active)
same,CC50,[7],> 40 µM (active)
COC1=C(Nc2ccc(O)cc2)C(=O)c2ccccc2C1=O,IC50,[8],24.4 µM (active)
same,AC50,[9],> 380 µM (inactive)
same,IC50,[10],24.7 µM (active)
same,AC50,[11],5.14 µM (active)
same,IC50,[12],9.88 µM (active)
same,EC50,[13],1.16 µM (active)
same,CC50,[14],56.8 µM (active)
CCN(CC)CC(O)Cn1c(C)c(-c2ccccc2)c2cc([N+](=O)[O-])ccc21 (centres undefined),AC50,[1],8.3 µM (active)
O=C(NN1CCOCC1)c1cc(-c2ccc(Br)cc2)nc2ccccc12,IC50,[4],> 64 µM (inactive)
CCN1/C(=C/c2ccc3cc(C)ccc3[n+]2CC)Sc2cc(C)ccc21,IC50,[8],80.4 µM (active)
same,AC50,[15],3.75 µM (active)
same,CC50,[14],23.1 µM (active)
Cc1ccc(C(=O)CSc2ncnc3sc4c(c23)CCCC4)cc1,IC50,[4],> 64 µM (inactive)
COc1cc2nc(N(CCCN(C)C)C(=O)c3ccc(C(=O)c4ccccc4)cc3)sc2cc1OC,AC50,[1],15.8 µM (active)
COc1ccc(C(=O)OCC[N+]2(C)CCOCC2)cc1,IC50,[4],50 µM (inactive)
same,IC50,[16],3.47 µM (active)
same,IC50,[17],1.97 µM (active)
CCCS(=O)(=O)N1CCN(S(=O)(=O)c2ccccc2)CC1,IC50,[4],> 64 µM (inactive)
O=C(Nc1cccc(Cl)c1N1CCOCC1)c1ccc([N+](=O)[O-])o1,CC50,[7],> 40 µM (active)
NS(=O)(=O)c1ccc(O)c(NC(=O)c2ccc([N+](=O)[O-])o2)c1,IC50,[18],1.52 µM (active)
same,CC50,[7],> 40 µM (active)
same,IC50,[19],35.9 µM (inactive)
same,IC50,[20],4.16 µM (active)
CN(C)CCOc1ccc2c(c1)C(=O)C(=Cc1ncc([N+](=O)[O-])n1C)C2,AC50,[1],7.08 µM (active)
same,AC50,[21],1.89 µM (active)
CCN(CC)S(=O)(=O)c1ccc(N/N=C(\C)c2ccc(OC)cc2O)nc1,EC50,[2],5.47 µM (active)
same,EC50,[22],> 350 µM (not active)
same,EC50,[23],> 38 µM (not active)
same,CC50,[7],3.86 µM (active)
same,EC50,[24],29.1 µM (active)
O=C(N/N=C/c1cc([N+](=O)[O-])ccc1O)C1CC1,CC50,[7],> 40 µM (active)
